Results on one compound are retold here after patent US20240252652A1, “PROTEINS HAVING UNNATURAL AMINO ACIDS AND METHODS OF USE” (The Regents of the University of California, priority 2021, published 2024).

One data set deals with HEK293T cells. In words: Cell viability assay (CellTiter-Blue). Conditions: 0-1 mM SFY, 24 h or 48 h. It counts as cell-based, human. How it is done:
Error bars represent s.e.m.; n=3 independent tests.
Cell viability assay. 2×10^4 cells/well of HEK293T cells were seeded in a 96-well plate. On the next day, the media were replaced with fresh DMEM media supplemented with 0, 0.0625, 0.125, 0.25, 0.5, or 1 mM of SFY. The SFY-treated and control cells were cultured for an additional 24-48 h at 37° C. and then analyzed with CellTiter-Blue R Cell Viability Assay following the manufacturer's instructions.
A general note: Resazurin is reduced to fluorescent resorufin, in cell work by metabolically active cells.

The next data set concerns GST dimer. The data set is described as follows: Cross-linking of GST-103SFY-107X in live mammalian cells. The format is cell-based. Conditions: HEK293T cells, Western blot. From the text:
(§1) To determine which amino acid residues could react with SFY via proximity-enabled reactivity directly in cells, we coexpressed in E. coli the Z protein and an affibody (Afb) specifically binding it. Based on the crystal structure of Afb-Z complex, we introduced SFY at site 24 of the Z protein and various natural residues at site 7 of the affibody (FIG. 11D), placing the two residues in close proximity upon Afb-Z binding. (Wang et al. J. Am Chem. Soc. 140:4995-4999 (2018)). After expression of Afb(24SFY) and Z(7X) (X=target residue) for 6 h. cells were lysed and analyzed with Western blot under denatured conditions (FIG. 11E). Crosslinking bands corresponding to the adduct of Afb and Z were detected for target residue His. Tyr, and Lys, for both Mm-tRNA^Pyl/MmSFYRS and Ma-tRNA^Pyl/MaSFYRS. We then purified 6×His-tagged Z and Afb proteins from cells and analyzed with SDS-PAGE. Consistently, a protein band corresponding to the cross-linked Z with Afb was clearly observed for Afb-7Lys. Afb-7His, and Afb-7Tyr (FIG. 11E). We further tested if SFY could crosslink with these residues in mammalian cells. […] (Liu et al. J. Am Chem. 141:9458-9462 (2019)). We incorporated SFY at site 103 of GST and mutated residue 107 to various target residues. HEK293T cells expressing these GST mutants were lysed and Western blotted to detect covalent GST dimer formation (FIG. 11G). […]
On the technique in general: Immunoblotting shows a protein as a band on a membrane.

Another data set relates to Afb-Z complex. In words: Cross-linking of MBP-Z24SFY and Afb4A-7X in live E. coli cells. Conditions: 6 h expression, Western blot. It counts as cell-based.
Description: as §1

As to `COc1ccc(C[C@H](N)C(=O)O)cc1S(=O)(=O)F` [SFY, (S)-1-carboxy-2-(3-(fluorosulfonyl)-4-methoxyphenyl)ethan-1-aminium], the “toxicity to HEK293T cells” value in the data set with HEK293T cells is given as “did not observe obvious toxicity”. Moreover, the “target residues reacting (covalent GST dimer)” value in the data set on GST dimer was “react with His. Tyr, and Lys”. Moreover, the “target residues giving crosslinking bands (adduct of Afb and Z)” value in the data set with Afb-Z complex was “detected for target residue His. Tyr, and Lys”.
